Measured values: US20060002934A1 (priority 2002, published 2006)

Tests used:
[1] = test system: parental, wt and mutant E-cadherin expressing MDA-MB-435S cells; experiment: Colony formation assay; type: cell-based, human; conditions: 2 h treatment, colonies counted after 7 days; parental vs wt vs mutant E-cadherin cells
Protocol: Chemosensitivity to cisplatin, etoposide and 5-FU of parental, wt and mutant E-cadherin expressing MDA-MB-435S cells was investigated by colony formation assay. Cells were seeded at a density of 2×10^3 cells per 6-well and treated 3 h later for 2 h with cisplatin, etoposide or 5-FU. Colonies were fixed and stained after 7 days with Diff Quick Reagent (Dade Behring, Liederbach, Germany) and the colony number was determined with Scion Image Software from Scion Corporation (Frederick, USA). The percentage of colonies was determined corresponding to non-treated cells.

[2] = test system: parental, wt and mutant E-cadherin expressing MDA-MB-435S cells; experiment: Sensitivity profiling by XTT-cell proliferation and viability assay; type: cell-based, human; conditions: 48 h treatment, increasing concentrations; parental vs wt vs mutant E-cadherin cells
Protocol: Cells were seeded at a density of […] cells per well in 96-well microtiter plates (Nunc, Wiesbaden-Biebrich, Germany) in 100 μl DMEM with 10% FCS per-well, and cell proliferation was investigated by XTT-cell proliferation and viability assay (Roche Molecular Biochemicals, Mannheim, Germany). After 24, 48 and 72 h, 50 μl XTT labeling mixture was added. The cleavage of the tetrazolium salt XTT to form a formazan dye that occurs in metabolically active viable cells was quantified spectrophotometrically by measuring the absorbance of the formazan product at 450 nm by an ELISA plate reader. The absorbance values obtained when culture medium without cells was assayed was subtracted from the values obtained with cells. Quadruplicate determinations were performed for each time point. The sensitivity of parental, wt and mutant E-cadherin expressing MDA-MB-435S cells to the chemotherapeutic agents cisplatin, etoposide and 5-FU was investigated by XTT-cell proliferation and viability assay as described above. […] After 48 h, 50 μXTT labeling mixture was added and the absorbance values at 450 nm were measured spectrophotometrically by an ELISA plate reader. The absorbance values obtained when culture medium without cells was assayed, were subtracted from the values obtained with cells. […] The percentage of viable cells was determined corresponding to non-treated cells.

**Q.** What does the source list for N.N.[Cl][Pt][Cl] [cisplatin]?
**A.** sensitivity profile, colony formation [1]: reduced sensitivity of wt or mutant E-cadherin expressing MDA-MB-435S cells as compared to parental cells; sensitivity profile, cell survival by XTT assay [2]: reduced sensitivity of wt or mutant E-cadherin expressing MDA-MB-435S cells as compared to parental cells
